# Measurements as given in patent publication US20020137929A1, “1 - (3-heterocyclylphenyl) isothiourea, -isourea, -guanidine and -amidine herbicidal agents” (Intellectual Property Department, BASF Aktiengesellschaft, priority 1998, published 2002).
# Columns and labels:
# SETVI (Foxtail, Green) = assay: Preemergence herbicidal evaluation; format: in vivo, Setaria viridis; conditions: rated 4-5 weeks after treatment; for SETVI rating: preemergence, 0-9 scale
# Method in brief: (§1)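 Herbicidal effect scored visually, 0-9, at 4 to 5 weeks against a control; compound applied preemergence by aqueous acetone spray to seeded soil at about 0.0156 to 0.500 kg/ha.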
# ZEAMX (Corn, Field) = assay: Postemergence herbicidal evaluation; format: in vivo, Zea mays; conditions: for ZEAMX herbicidal rating: postemergence
# Method in brief: (§2)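 Two-week-old seedlings sprayed with compound in 50/50 acetone/water plus 0.5% TWEEN 20, at about 0.0156 to 0.500 kg/ha, nozzle at 40 psi. Kept in greenhouse; rated visually 4-5 weeks after treatment on a 0-9 scale versus control, repeat tests averaged.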
# [1] = test system: IPOHE (Morningglory, Ivyleaf); assay: Postemergence herbicidal evaluation; format: in vivo, Ipomoea hederacea; conditions: for IPOHE herbicidal rating: postemergence
# Method in brief: as §2
# [2] = test system: SAGPY (Arrowhead (Pygmaea)); assay: Preemergence weed control under flooded paddy conditions; format: in vivo, Sagittaria pygmaea; conditions: rated 3-4 weeks after treatment
# Method in brief: (§3)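 Seeds or propagules sown in silt loam kept flooded 1.5-3 cm; compounds in 50/50 acetone/water pipetted into flood water at about 0.0313 to 0.500 kg/ha. Greenhouse; visual 0-9 rating versus untreated control 3-4 weeks after treatment.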
# [3] = test system: GLXMAW (Soybean, Williams); assay: Postemergence herbicidal evaluation; format: in vivo, Glycine max, (L.) Merr. cv Williams; conditions: for GLXMAW herbicidal rating: postemergence
# Method in brief: as §2
# ECHCG (Barnyardgrass) = assay: Preemergence herbicidal evaluation; format: in vivo, Echinochloa crus-galli; conditions: rated 4-5 weeks after treatment; for ECHCG rating: preemergence, 0-9 scale
# Method in brief: as §1
# CASOB (Sicklepod) = assay: Preemergence herbicidal evaluation; format: in vivo, Cassia obtusifolia; conditions: rated 4-5 weeks after treatment; for CASOB rating: preemergence, 0-9 scale
# Method in brief: as §1
# ABUTH (Velvetleaf) = assay: Preemergence herbicidal evaluation; format: in vivo, Abutilon theophrasti; conditions: rated 4-5 weeks after treatment; for ABUTH rating: preemergence, 0-9 scale
# Method in brief: as §1
# CYPSE (Flatsedge) = assay: Preemergence weed control under flooded paddy conditions; format: in vivo, Cyperus serotinus; conditions: rated 3-4 weeks after treatment
# Method in brief: as §3
# [4] = test system: GLXMAW (Soybean, Williams); assay: Preemergence herbicidal evaluation; format: in vivo, Glycine max, (L.) Merr. cv Williams; conditions: rated 4-5 weeks after treatment; for GLXMAW rating: preemergence, 0-9 scale
# Method in brief: as §1
# [5] = test system: ECHORC (Watergrass (Calif.)); assay: Postemergence weed control under flooded paddy conditions; format: in vivo, Echinochloa oryzoides; conditions: postemergence weeds
# Method in brief: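 Flood-water application, about 0.0313–0.500 kg/ha a.i. in aqueous/acetone 50/50 v/v; water depth 1.5–3 cm throughout. Weeds 3–5 cm, rice 1.5–2.5 leaf. Greenhouse; 0–9 visual rating vs control at 3–4 wk.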
# GALAP (Galium) = assay: Preemergence herbicidal evaluation; format: in vivo, Galium aparine; conditions: rated 4-5 weeks after treatment; for GALAP rating: preemergence, 0-9 scale
# Method in brief: as §1
# AMBEL (Ragweed, Common) [6] = assay: Preemergence herbicidal evaluation; format: in vivo, Ambrosia artemisifolia; conditions: rated 4-5 weeks after treatment; for AMBEL rating: preemergence, 0-9 scale
# Method in brief: as §1
# AMBEL (Ragweed, Common) [7] = assay: Postemergence herbicidal evaluation; format: in vivo, Ambrosia artemisifolia; conditions: for AMBEL herbicidal rating: postemergence
# Method in brief: as §2
structure (smiles),measurement,setting,value
"COC(=O)CCN1C(=O)CSC1=Nc1cc(-n2c(=O)cc(C(F)(F)F)n(C)c2=O)c(F)cc1Cl [Compound 28, Methyl 2-{{2-chloro-5-[3,6-dihydro-3-methyl-2,6-dioxo-4-(trifluoromethyl)-1(2H)-pyrimidinyl]-4-fluorophenyl}imino}-4-oxo-3-thiazolidinepropionate]",Preemergence herbicidal rating SETVI,"SETVI (Foxtail, Green); rate 0.0625 kg/ha",7.0
same,Preemergence herbicidal rating SETVI,"SETVI (Foxtail, Green); rate 0.1250 kg/ha",9.0
same,Preemergence herbicidal rating SETVI,"SETVI (Foxtail, Green); rate 0.2500 kg/ha",9.0
same,Postemergence herbicidal rating ZEAMX,"ZEAMX (Corn, Field); Rate 0.0158 kg/ha",7.5
same,Postemergence herbicidal rating ZEAMX,"ZEAMX (Corn, Field); Rate 0.0315 kg/ha",7.5
same,Postemergence herbicidal rating ZEAMX,"ZEAMX (Corn, Field); Rate 0.0630 kg/ha",9.0
same,Postemergence herbicidal rating IPOHE,[1]; Rate 0.0158 kg/ha,9.0
same,Postemergence herbicidal rating IPOHE,[1]; Rate 0.0315 kg/ha,9.0
same,Postemergence herbicidal rating IPOHE,[1]; Rate 0.0630 kg/ha,9.0
same,Herbicidal rating SAGPY,[2]; 0.0313 kg/ha,0.0
same,Herbicidal rating SAGPY,[2]; 0.0625 kg/ha,0.0
same,Herbicidal rating SAGPY,[2]; 0.1250 kg/ha,0.0
same,Herbicidal rating SAGPY,[2]; 0.2500 kg/ha,0.0
same,Postemergence herbicidal rating GLXMAW,[3]; Rate 0.0158 kg/ha,6.5
same,Postemergence herbicidal rating GLXMAW,[3]; Rate 0.0315 kg/ha,8.0
same,Postemergence herbicidal rating GLXMAW,[3]; Rate 0.0630 kg/ha,8.5
same,Preemergence herbicidal rating ECHCG,ECHCG (Barnyardgrass); rate 0.0625 kg/ha,0.0
same,Preemergence herbicidal rating ECHCG,ECHCG (Barnyardgrass); rate 0.1250 kg/ha,9.0
same,Preemergence herbicidal rating ECHCG,ECHCG (Barnyardgrass); rate 0.2500 kg/ha,9.0
same,Preemergence herbicidal rating CASOB,CASOB (Sicklepod); rate 0.0625 kg/ha,0.0
same,Preemergence herbicidal rating CASOB,CASOB (Sicklepod); rate 0.1250 kg/ha,0.0
same,Preemergence herbicidal rating CASOB,CASOB (Sicklepod); rate 0.2500 kg/ha,0.0
same,Preemergence herbicidal rating ABUTH,ABUTH (Velvetleaf); rate 0.1250 kg/ha,3.0
same,Preemergence herbicidal rating ABUTH,ABUTH (Velvetleaf); rate 0.2500 kg/ha,9.0
same,Herbicidal rating CYPSE,CYPSE (Flatsedge); 0.0313 kg/ha,0.0
same,Herbicidal rating CYPSE,CYPSE (Flatsedge); 0.0625 kg/ha,0.0
same,Herbicidal rating CYPSE,CYPSE (Flatsedge); 0.1250 kg/ha,0.0
same,Herbicidal rating CYPSE,CYPSE (Flatsedge); 0.2500 kg/ha,0.0
same,Preemergence herbicidal rating GLXMAW,[4]; rate 0.0625 kg/ha,3.0
same,Preemergence herbicidal rating GLXMAW,[4]; rate 0.1250 kg/ha,5.0
same,Preemergence herbicidal rating GLXMAW,[4]; rate 0.2500 kg/ha,9.0
same,Herbicidal rating ECHORC,"[5]; rate 0.0313 kg/ha, 3-4 weeks after treatment",0.0
same,Herbicidal rating ECHORC,"[5]; rate 0.0625 kg/ha, 3-4 weeks after treatment",4.0
same,Herbicidal rating ECHORC,"[5]; rate 0.1250 kg/ha, 3-4 weeks after treatment",7.0
same,Herbicidal rating ECHORC,"[5]; rate 0.2500 kg/ha, 3-4 weeks after treatment",9.0
same,Preemergence herbicidal rating GALAP,GALAP (Galium); rate 0.0625 kg/ha,0.0
same,Preemergence herbicidal rating GALAP,GALAP (Galium); rate 0.1250 kg/ha,0.0
same,Preemergence herbicidal rating GALAP,GALAP (Galium); rate 0.2500 kg/ha,9.0
same,Preemergence herbicidal rating AMBEL,"AMBEL (Ragweed, Common) [6]; rate 0.0625 kg/ha",0.0
same,Preemergence herbicidal rating AMBEL,"AMBEL (Ragweed, Common) [6]; rate 0.1250 kg/ha",0.0
same,Preemergence herbicidal rating AMBEL,"AMBEL (Ragweed, Common) [6]; rate 0.2500 kg/ha",7.0
same,Postemergence herbicidal rating AMBEL,"AMBEL (Ragweed, Common) [7]; Rate 0.0158 kg/ha",4.0
same,Postemergence herbicidal rating AMBEL,"AMBEL (Ragweed, Common) [7]; Rate 0.0315 kg/ha",4.0
same,Postemergence herbicidal rating AMBEL,"AMBEL (Ragweed, Common) [7]; Rate 0.0630 kg/ha",9.0
"COC(=O)C1(N2C(=O)CSC2=Nc2cc(-n3c(=O)cc(C(F)(F)F)n(C)c3=O)c(F)cc2Cl)CCCCC1 [Compound 81, Methyl 1-{2-{{2-chloro-5-[3,6-dihydro-3-methyl-2,6-dioxo-4-(trifluoromethyl)-1(2H)-pyrimidinyl]-4-fluorophenyl}imino}-4-oxo-3-thiazolidinyl}-cyclohexanecarboxylate]",SETVI rating,"SETVI (Foxtail, Green); 0.0313 kg/ha",0.0
same,SETVI rating,"SETVI (Foxtail, Green); 0.0625 kg/ha",1.0
same,SETVI rating,"SETVI (Foxtail, Green); 0.1250 kg/ha",0.0
same,SETVI rating,"SETVI (Foxtail, Green); 0.2500 kg/ha",3.0
same,ZEAMX herbicidal rating,"ZEAMX (Corn, Field); rate 0.0158 kg/ha",6.5
same,ZEAMX herbicidal rating,"ZEAMX (Corn, Field); rate 0.0315 kg/ha",7.0
same,ZEAMX herbicidal rating,"ZEAMX (Corn, Field); rate 0.0630 kg/ha",7.0
same,IPOHE herbicidal rating,[1]; rate 0.0158 kg/ha,9.0
same,IPOHE herbicidal rating,[1]; rate 0.0315 kg/ha,9.0
same,IPOHE herbicidal rating,[1]; rate 0.0630 kg/ha,9.0
same,SAGPY herbicidal effect rating,[2]; 0.0625 kg/ha,0.0
same,SAGPY herbicidal effect rating,[2]; 0.1250 kg/ha,0.0
same,SAGPY herbicidal effect rating,[2]; 0.2500 kg/ha,0.0
same,GLXMAW herbicidal rating,[3]; rate 0.0158 kg/ha,6.5
same,GLXMAW herbicidal rating,[3]; rate 0.0315 kg/ha,6.5
same,GLXMAW herbicidal rating,[3]; rate 0.0630 kg/ha,6.5
same,ECHCG rating,ECHCG (Barnyardgrass); 0.0313 kg/ha,0.0
same,ECHCG rating,ECHCG (Barnyardgrass); 0.0625 kg/ha,0.0
same,ECHCG rating,ECHCG (Barnyardgrass); 0.1250 kg/ha,0.0
same,ECHCG rating,ECHCG (Barnyardgrass); 0.2500 kg/ha,1.0
same,CASOB rating,CASOB (Sicklepod); 0.0313 kg/ha,0.0
same,CASOB rating,CASOB (Sicklepod); 0.1250 kg/ha,0.0
same,CASOB rating,CASOB (Sicklepod); 0.2500 kg/ha,0.0
same,ABUTH rating,ABUTH (Velvetleaf); 0.0313 kg/ha,9.0
same,ABUTH rating,ABUTH (Velvetleaf); 0.0625 kg/ha,9.0
same,ABUTH rating,ABUTH (Velvetleaf); 0.1250 kg/ha,9.0
same,ABUTH rating,ABUTH (Velvetleaf); 0.2500 kg/ha,9.0
same,CYPSE herbicidal effect rating,CYPSE (Flatsedge); 0.0625 kg/ha,0.0
same,CYPSE herbicidal effect rating,CYPSE (Flatsedge); 0.1250 kg/ha,0.0
same,CYPSE herbicidal effect rating,CYPSE (Flatsedge); 0.2500 kg/ha,0.0
same,GLXMAW rating,[4]; 0.0313 kg/ha,0.0
same,GLXMAW rating,[4]; 0.0625 kg/ha,2.0
same,GLXMAW rating,[4]; 0.1250 kg/ha,1.0
same,GLXMAW rating,[4]; 0.2500 kg/ha,3.0
same,Herbicidal rating ECHORC,"[5]; Rate 0.0625 kg/ha, rated 3 to 4 weeks after treatment",0.0
same,Herbicidal rating ECHORC,"[5]; Rate 0.1250 kg/ha, rated 3 to 4 weeks after treatment",3.0
same,Herbicidal rating ECHORC,"[5]; Rate 0.2500 kg/ha, rated 3 to 4 weeks after treatment",3.0
same,GALAP rating,GALAP (Galium); 0.0313 kg/ha,0.0
same,GALAP rating,GALAP (Galium); 0.0625 kg/ha,0.0
same,GALAP rating,GALAP (Galium); 0.1250 kg/ha,0.0
same,GALAP rating,GALAP (Galium); 0.2500 kg/ha,1.0
same,AMBEL rating,"AMBEL (Ragweed, Common) [6]; 0.0313 kg/ha",6.0
same,AMBEL rating,"AMBEL (Ragweed, Common) [6]; 0.0625 kg/ha",6.0
same,AMBEL rating,"AMBEL (Ragweed, Common) [6]; 0.1250 kg/ha",9.0
same,AMBEL rating,"AMBEL (Ragweed, Common) [6]; 0.2500 kg/ha",9.0
same,AMBEL herbicidal rating,"AMBEL (Ragweed, Common) [7]; rate 0.0158 kg/ha",9.0
same,AMBEL herbicidal rating,"AMBEL (Ragweed, Common) [7]; rate 0.0315 kg/ha",9.0
same,AMBEL herbicidal rating,"AMBEL (Ragweed, Common) [7]; rate 0.0630 kg/ha",9.0
